Target: T1, CHIP (Homo sapiens, UniProt Q9UNE7)
T1 construct: gene STUB1; commercial human recombinant CHIP (OriGene)
T1 sequence (Q9UNE7 1-303): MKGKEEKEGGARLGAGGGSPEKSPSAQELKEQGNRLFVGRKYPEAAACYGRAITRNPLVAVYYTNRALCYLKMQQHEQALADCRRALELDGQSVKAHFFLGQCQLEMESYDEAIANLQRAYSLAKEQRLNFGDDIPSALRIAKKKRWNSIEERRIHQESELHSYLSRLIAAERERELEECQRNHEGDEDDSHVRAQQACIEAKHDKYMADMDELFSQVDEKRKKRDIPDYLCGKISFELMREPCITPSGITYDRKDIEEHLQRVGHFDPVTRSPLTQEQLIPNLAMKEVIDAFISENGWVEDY
Experiment: microscale thermophoresis, Monolith NT.[…], single-site fit
Assay type: binding

- Kd: 1830 nM
SMILES: C=CC(=O)Nc1ccc(CN2C(=O)N(c3cc(OC)cc(OC)c3)Cc3cnc(Nc4ccc(N5CCN(C)CC5)cc4)nc32)cc1 [FIIN-2]

— paper PMC12313710, “Targeting the BAG2/CHIP axis promotes gastric cancer apoptosis by blocking apoptosome assembly” (Frontiers in Immunology, 2025)
